Measurements from patent publication US11963977B2, “Generating pluripotent cells de novo” (VCell Therapeutics, Inc., priority 2012, dated 2024).

What was measured:
Assay type in all cases: cell-based, mouse
Conditions in all cases: 1 week-old, after 1 week of stress treatment, SLO 10 μg/mL, ATP 2.4 mM, Ca 2 mM CaCl2
[1] = test system: Fat somatic cells; assay: Percent of cells demonstrating pluripotent phenotype after stress treatment, fat cells
Text: (§1) Stress alteration of mature somatic cells procured from various adult tissues. To examine whether ACCs could be generated not only mature lymphocytes but also other types of somatic cells, brain, skin, muscle, fat, bone marrow, lung and liver were harvested from Oct4-GFP (GOF) mice^8. Cells were isolated from the tissue samples, dissociated into single cells, and treated with different physical and or chemical stress conditions. The efficiency of the process to alter the cells differed as a function of both the source of cells and the stress condition(s) to which the cells were exposed (FIG. 7A). The ability of stress to alter mature cells to express Oct4, differed depending on the derivation of cells, but stress was able to alter cells to express Oct4 to some degree in mature cells derived from all three germ layers (FIG. 7A). ACC colonies derived from any mature tissue expressed pluripotent markers, E-cadherin, Nanog, PCAM-1 and AP (data not shown), and ES specific marker genes (FIG. 7B). Significant physical and chemical stresses altered mature somatic cells to revert to a stem cell state, despite of the source of tissues and derivation of the germ layers.
(§2) Exposure to external stimuli—stress treatment. […]
(§3) Fluorescence-Activated Cell Sorting and Flow Cytometry. […] Cells were sorted on a BD FACSAria SORP and analyzed on a BD LSRII with BD FACSDiva Software (BD Biosciences).

[2] = test system: Brain somatic cells; assay: Percent of cells demonstrating pluripotent phenotype after stress treatment, brain cells
[3] = test system: Fibroblast; assay: Percent of cells demonstrating pluripotent phenotype after stress treatment, fibroblasts
Text: as §1, §2, §3

[4] = test system: Muscle somatic cells; assay: Percent of cells demonstrating pluripotent phenotype after stress treatment, muscle cells
Text: as §1, §2, §3

[5] = test system: Bone Marrow somatic cells; assay: Percent of cells demonstrating pluripotent phenotype after stress treatment, bone marrow cells
Text: as §1, §2, §3

[6] = test system: Lung somatic cells; assay: Percent of cells demonstrating pluripotent phenotype after stress treatment, lung cells
Text: as §1, §2, §3

streptolysin O [SLO]
Percent of cells demonstrating pluripotent phenotype [1]: 32.8% | Percent of cells demonstrating pluripotent phenotype [2]: 10.3% | Percent of cells demonstrating pluripotent phenotype [3]: 15.2% | Percent of cells demonstrating pluripotent phenotype [4]: 20.5% | Percent of cells demonstrating pluripotent phenotype [5]: 13.2% | Percent of cells demonstrating pluripotent phenotype [6]: 18.4%
